Source: patent US6844343B1, “N-substituted 4-aminopteridines, synthesis and use thereof as pharmaceutical agent” (Vasopharm Biotech GmbH, priority 1999, dated 2005)
Blank lines part the entries; values can stand above or below the compound they belong to.

How the values were obtained:
[1] = system: purified NO synthase from pig cerebellum or from pig liver; assay: Activity assay of purified NOS (3H-L-arginine to 3H-L-citrulline conversion); format: biochemical; conditions: substance 100 μM, in the presence of 2 μM tetrahydrobiopterin, 15 min at 37° C.
Experimental: The inhibition of the activity of purified nitric oxide synthase (NOS) by compounds of the general formula I can be determined as follows.
(§1) In this activity assay the L-citrulline which is a coproduct of the formation of NO by purified NOS is quantitatively measured. ^3H-radiolabeled L-arginine is employed as substrate of the enzyme reaction and is converted into ^3H-L-citrulline and NO. After completion of the enzyme incubation, generated L-citrulline is removed from unused L-arginine by ion exchange chromatography from the reaction mixture; the ^3H activity measured by liquid scintillation then is corresponds to the amount of L-citrulline, which is a direct measure of the activity of NOS.
The basic medium for carrying out the enzyme reaction is TE buffer (triethanolamine, EDTA, pH 7.0).
The final volume of each incubation is 100 μl. The reaction mixture is obtained by mixing the following 6 components on ice: • 1. “REA-Mix” (pH 7.0) which contains triethanolamine, calcium chloride, magnesium chloride, EDTA, L-arginine, calmodulin and flavin adenine dinucleotide (FAD); • 2. freshly prepared stock solution of β-nicotinamide adenine dinucleotide phosphate, reduced form (NADPH); • 3. (6R)-5,6,7,8-tetrahydro-L-biopterin dihydro-chloride stock solution (BH4) or —for experiments without BH4-instead TE buffer; • 4. purified NO synthase from pig cerebellum or from pig liver; • 5.
(§2) After mixing of the components on ice, the reaction mixture was immediately incubated in a water bath at 37° C. for 15 minutes. […] After this incubation time, the reaction was stopped by addition of 900 μl of ice-cold “stop buffer” (20 mM sodium acetate, 2 mM EDTA, pH 5.5), and the mixture (total volume now 1.0 ml) was placed on ice. To remove the unreacted ^3H-L-arginine, the mixture was loaded onto an ion exchange column with 0.8 ml of Dowex AG 50 WX-8 (100-200 mesh) which has previously been washed and equilibrated with 2 ml of stop buffer. After loading of the sample, the column was eluted twice with 1 ml of water each time. The flow-through of the sample and the eluate were collected in scintillation vessels and […] (total volume 3 ml). 9 ml of scintillator solution were added to the 3 ml of aqueous measurement solution, and the homogeneous mixture was measured in a Tricarb 2500 TR (Packard) liquid scintillation counter for 1 minute for each sample. […] Each substance was tested for an antagonistic effect in a concentration of 100 μM in the presence of 2 μM tetrahydrobiopterin, and for an agonistic effect on NOS in the absence of tetrahydrobiopterin.
All incubations were carried out on triplicates. Each experiment was repeated three times with different enzyme preparations.

[2] = system: purified NO synthase from pig cerebellum or from pig liver; assay: as above; format: biochemical; conditions: incubated in the presence of 5 kU/ml catalase for 45 minutes
NOS-I = NOS-I (Homo sapiens, UniProt P29475); assay: Inhibition of human NOS isoforms: NOS-I; format: biochemical
Experimental: as §1, §2
In addition, the relative selectivities of the antipterin inhibitors for the three known human NOS isoforms were measured. So doing, the IC50 values for NOS-II/NOS-I and NOS-III/NOS-I were formed (compare Table 2).

NOS-II = NOS-II (Homo sapiens, UniProt P35228); assay: Inhibition of human NOS isoforms: NOS-II; format: biochemical
Experimental: (§3) After mixing of the components on ice, the reaction mixture was immediately incubated in a water bath at 37° C. for 15 minutes. […] After this incubation time, the reaction was stopped by addition of 900 μl of ice-cold “stop buffer” (20 mM sodium acetate, 2 mM EDTA, pH 5.5), and the mixture (total volume now 1.0 ml) was placed on ice. To remove the unreacted ^3H-L-arginine, the mixture was loaded onto an ion exchange column with 0.8 ml of Dowex AG 50 WX-8 (100-200 mesh) which has previously been washed and equilibrated with 2 ml of stop buffer. After loading of the sample, the column was eluted twice with 1 ml of water each time. The flow-through of the sample and the eluate were collected in scintillation vessels and […] (total volume 3 ml). 9 ml of scintillator solution were added to the 3 ml of aqueous measurement solution, and the homogeneous mixture was measured in a Tricarb 2500 TR (Packard) liquid scintillation counter for 1 minute for each sample. […] In addition, the relative selectivities of the antipterin inhibitors for the three known human NOS isoforms were measured. So doing, the IC50 values for NOS-II/NOS-I and NOS-III/NOS-I were formed (compare Table 2).

NOS-III = NOS-III (Homo sapiens, UniProt P29474); assay: Inhibition of human NOS isoforms: NOS-III; format: biochemical
Experimental: as §3

[3] = system: intact rat alveolar macrophages; conditions: cited from earlier work
NO synthase = conditions: literature reports on BH4 analogues; cited from earlier work

Compound: 2-amino-4-(dibenzylamino)-6-(3,4-dimethoxyphenyl)-pteridine hemihydrate [Example 22]
Remaining activity (% of Vmax) [1]: 0 % of Vmax | IC50 [2]: 2 µM

Compound: 2-amino-4-(diethylamino)-6-(4-chlorophenyl)-5,6,7,8-tetrahydropteridine dihydrochloride hemi-hydrate [Example 48]
Activity (% of control) (NOS-I): 2 ± 0 % of control | IC50 (NOS-I): 41.5 µM | Remaining activity (% of Vmax) [1]: 0 % of Vmax | IC50 [2]: 8 µM | Activity (% of control) (NOS-II; human NOS-II): 74 ± 4 % of control | IC50 (NOS-II; human NOS-II, enzyme inhibition not complete up to 300 μM, IC50 values extrapolated): 300 µM | Ratio NOS-II/I (NOS-II; ratio of IC50 values NOS-II/NOS-I): 7.2 | Activity (% of control) (NOS-III; human NOS-III): 27 ± 1 % of control | IC50 (NOS-III; human NOS-III): 45.4 µM | Ratio NOS-III/I (NOS-III; ratio of IC50 values NOS-III/NOS-I): 1.1

Compound: Nc1nc(N(Cc2ccccc2)Cc2ccccc2)c2nc(-c3ccc(Cl)cc3)cnc2n1.O.O [Example 20, 2-amino-4-(dibenzylamino)-6-(4-chlorophenyl)-pteridine dihydrate]
Remaining activity (% of Vmax) [1]: 0 % of Vmax | IC50 [2]: 3.5 µM

Activity (% of control) (NOS-I): 27 ± 1 % of control | Activity (% of control) (NOS-II; human NOS-II): 81 ± 6 % of control | Activity (% of control) (NOS-III; human NOS-III): 68 ± 2 % of control
Compound: COc1ccc(-c2cnc3nc(N)nc(N(Cc4ccccc4)Cc4ccccc4)c3n2)cc1 [Example 21, 2-amino-4-(dibenzylamino)-6-(4-methoxyphenyl)-pteridine]
Remaining activity (% of Vmax) [1]: 0 ± 0.05 % of Vmax

Compound: CCCN(CCC)c1nc(N)nc2c1NC(c1ccccc1)CN2.Cl.Cl.Cl.O (stereo not shown) [Example 46, 2-amino-4-(di-n-propylamino)-6-phenyl-5,6,7,8-tetrahydropteridine trihydrochloride hydrate]
Activity (% of control) (NOS-I): 1 ± 0.1 % of control | Remaining activity (% of Vmax) [1]: 8 ± 0.05 % of Vmax | Activity (% of control) (NOS-II; human NOS-II): 68 ± 1 % of control | Activity (% of control) (NOS-III; human NOS-III): 27 ± 0.2 % of control

Compound: CCCN(CCC)c1nc(N)nc2c1NC(c1ccc(OC)cc1)CN2.Cl.Cl.O.O (stereo not shown) [Example 47, 2-amino-4-(di-n-propylamino)-6-(4-methoxyphenyl)-5,6,7,8-tetrahydropteridine dihydrochloride dihydrate]
Activity (% of control) (NOS-I): 0 ± 0.1 % of control | Remaining activity (% of Vmax) [1]: 0 % of Vmax | Activity (% of control) (NOS-II; human NOS-II): 78 ± 0.4 % of control | Activity (% of control) (NOS-III; human NOS-III): 31 ± 3 % of control

Activity (% of control) (NOS-I): 0 ± 0.1 % of control | Activity (% of control) (NOS-II; human NOS-II): 78 ± 6 % of control | Activity (% of control) (NOS-III; human NOS-III): 18 ± 1 % of control
Compound: Nc1nc(NCC2CCCCC2)c2c(n1)NCC(c1ccc(Cl)cc1)N2 (stereo not shown) [Example 49, 2-amino-4-(cyclohexylmethylamino)-6-(4-chloro-phenyl)-5,6,7,8-tetrahydropteridine dihydro-chloride hydrate]
Remaining activity (% of Vmax) [1]: 0 % of Vmax

Compound: Nc1nc2ncc(C(=O)O)nc2c(=O)[nH]1 [Pterin-6-carboxylic acid]
inhibition of NO production [3]: no effect

Compound: Nc1nc2[nH]c(=O)cnc2c(=O)[nH]1 [isoxanthopterin]
effect on NO production / NO synthase (NO synthase): no significant effects

Compound: CN(Cc1cnc2nc(N)nc(N)c2n1)c1ccc(C(=O)N[C@@H](CCC(=O)O)C(=O)O)cc1 [methotrexate]
effect on NO production / NO synthase (NO synthase): no significant effects

Compound: Nc1nc2ncc([C@H](O)[C@H](O)CO)nc2c(=O)[nH]1 [neopterin]
effect on NO production / NO synthase (NO synthase): no significant effects

Compound: Nc1nc2nccnc2c(=O)[nH]1 [pterin]
effect on NO production / NO synthase (NO synthase): no significant effects

Compound: C[C@H](O)C(=O)C1=Nc2c(nc(N)[nH]c2=O)NC1 [sepiapterin]
inhibition of NO production [3]: inhibition of NO production

Compound: Nc1nc2c(c(=O)[nH]1)NC(C(O)C(O)CO)CN2 (stereo not shown) [tetrahydro-neopterin]
effect on NO production / NO synthase (NO synthase): no significant effects

Compound: Nc1nc2c(c(=O)[nH]1)NC(CNc1ccc(C(=O)N[C@@H](CCC(=O)O)C(=O)O)cc1)CN2 (stereo partly shown) [tetrahydrofolic acid]
effect on NO production / NO synthase (NO synthase): no significant effects

Compound: Nc1nc(=O)c2[nH]c(=O)cnc2[nH]1 [xanthopterin]
effect on NO production / NO synthase (NO synthase): no significant effects

Compound: Biopterin
effect on NO production / NO synthase (NO synthase): no significant effects
